Assays:
[1] = Preliminary deblocking test of 3′ vinyl group with tetrazine reagent, HPLC UV absorption at 280 nm; format: physicochemical; conditions: 50 μM substrate, 5 mM methyltetrazine propylamine HCl, 0 to 60 Secs
Experimental: 50 μM of 3′ vinyl thymidine monophosphate (TMP) was deblocked in the presence of 5 mM of methyltetrazine propylamine HCl.

Pol 1558 = test: Template-dependent incorporation of nucleotide into primer strand by DNA polymerase, gel electrophoresis; format: biochemical, 9° N; conditions: Pol 1558 0.12 mg/mL, Mg2+ approximately 4 mM, 60° C. for 10 minutes
Source text: (§1) In this incorporation experiment, several DNA polymerases were used to test the feasibility of incorporating a 3′vinyl dTTP into a primer strand through template-dependent synthesis. For each test, 3′vinyl dTTP or an unblocked dTTP was exposed to one polymerase in the presence of a template strand having five A nucleotides overhang at the 5′ end, and the complementary primer strand has a fluorescent tag (FAM) at the 5′ end for visualization purposes. The DNA polymerases tested were Pol 812, Pol 963, Pol 1558, and Pol 1901, each at 0.12 mg/mL. The amino acid sequences of these mutants of 9° N polymerases are disclosed, for example, in U.S. Patent Publication Nos. 2020/0131484 A1 and 2020/0181587 A1, both of which are incorporated by reference herein in their entireties. The nucleotides include a 3′vinyl dTTP
(§2) The negative control nucleotide included a vinyl blocking group attached to the nitrogen atom of the T base typically involved in base-pair binding. Thus, it was expected that the negative control nucleotide would not be able to bind with the available adenosine bases of the template strand. The unaltered dTTP, on the other hand, was expected to be incorporated into the primer strand and could therefore act as a control for 5 incorporations.
(§3) For each test reaction, Mg^2+ concentration was at approximately 4 mM, while the polymerase of choice was at a concentration of 0.12 mg/mL. The reactions also had 20 μmol of nucleotide, nucleotide 1 or nucleotide 2 as diagrammed, and 4 μmol of the template strand (SEQ ID No. 1) and 4 μmol of the primer strand (SEQ ID No. 2). The reaction was carried at 60° C. for 10 minutes.
(§4) Lanes 4, 7, 10, and 13 show the nucleic acids formed when nucleotide 1 was available. Lanes 5, 8, 11, and 14 show the nucleic acids formed when nucleotide 2 was available. Lanes 6, 9, 12, and […] show the nucleic acids formed when unaltered dTTP was available.

Pol 1901 = test: as above; format: biochemical, 9° N; conditions: Pol 1901 0.12 mg/mL, Mg2+ approximately 4 mM, 60° C. for 10 minutes
Source text: as §1, §2, §3, §4

Pol 812 = test: as above; format: biochemical, 9° N; conditions: Pol 812 0.12 mg/mL, Mg2+ approximately 4 mM, 60° C. for 10 minutes
Source text: as §1, §2, §3, §4

[2] = molecular target: T1, commercially available TdT (Bos taurus, UniProt P06526); test: Template-independent enzymatic synthesis of oligonucleotides with TdT, gel electrophoresis; format: biochemical; conditions: for nucleic acid formed from primer by TdT (extent of nucleotide addition): 5 or 10 minutes at room temperature
T1 construct: purchased
T1 sequence (P06526 whole entry): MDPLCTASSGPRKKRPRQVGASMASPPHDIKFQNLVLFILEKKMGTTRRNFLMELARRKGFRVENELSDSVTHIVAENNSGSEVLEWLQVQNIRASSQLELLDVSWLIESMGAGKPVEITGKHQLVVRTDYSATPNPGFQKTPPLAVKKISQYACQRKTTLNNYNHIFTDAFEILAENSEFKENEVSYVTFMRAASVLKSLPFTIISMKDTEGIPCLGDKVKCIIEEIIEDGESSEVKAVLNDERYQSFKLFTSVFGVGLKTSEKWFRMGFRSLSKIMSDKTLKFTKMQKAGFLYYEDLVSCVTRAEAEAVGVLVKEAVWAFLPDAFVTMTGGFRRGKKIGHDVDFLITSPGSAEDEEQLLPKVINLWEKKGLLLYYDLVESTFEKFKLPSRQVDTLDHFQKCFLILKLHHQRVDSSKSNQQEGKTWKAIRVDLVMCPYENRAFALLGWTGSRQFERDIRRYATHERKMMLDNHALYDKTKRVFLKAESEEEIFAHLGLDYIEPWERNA
Experimental: A preliminary test of template-independent synthesis of oligonucleotides using a commercially available TdT was conducted. A primer strand with a FAM fluorescent tag at the 5′ end (SED ID No. 2) was introduced.
Three different nucleotides were included, depending on the test condition: a 3′ vinyl blocked dTTP (“3VT”), a 3′-vinyl blocked dTTP that is pre-heated at 60° C. for 5 minutes (“HVT”), and an unaltered dTTP with 3′ hydroxy (“dT”). HVT condition was used to test the thermal stability of the nucleotide. Each nucleotide was allowed to react with the template in the presence of the TdT for 5 or 10 minutes at room temperature.
A control was run simultaneously, which included a primer with one added nucleotide. […] Without being bound to a particular theory, it is believed that the 3′ blocking group on the 3VT nucleotide prevented synthesis beyond the addition of one nucleotide.

[3] = system: DNA polymerases Pol 812, Pol 963, Pol 1558, and Pol 1901; test: Template-dependent incorporation of nucleotide into primer strand by DNA polymerases, gel electrophoresis; format: biochemical, 9° N; conditions: polymerase 0.12 mg/mL, Mg2+ approximately 4 mM, 60° C. for 10 minutes, template with five A overhang
Source text: as §1, §2
For each test reaction, Mg^2+ concentration was at approximately 4 mM, while the polymerase of choice was at a concentration of 0.12 mg/mL. […]

## C=C[C@]1(O)C[C@H](n2cc(C)c(=O)[nH]c2=O)O[C@@H]1COP(=O)(O)O [3′ vinyl thymidine monophosphate (TMP), 3′ vinyl thymidine monophosphate]
[1]
  deblocking of 3′ vinyl group to 3′OH TMP over time: all of the 3′vinyl TMP have been consumed or deblocked

## C=CO[C@H]1C[C@H](n2cc(C)c(=O)[nH]c2=O)O[C@@H]1COP(=O)(O)OP(=O)(O)OP(=O)(O)O [nucleotide 1]
Pol 1558
  capability of incorporating the nucleotide into the primer strand, compared among the four polymerases: best performance
Pol 1901
  capability of incorporating the nucleotide into the primer strand, compared among the four polymerases: least capable of the four
Pol 812
  capability of incorporating the nucleotide into the primer strand, compared among the four polymerases: best performance
[2]
  nucleic acid formed from primer by TdT (extent of nucleotide addition): addition of just one additional nucleotide
[2]; nucleotide pre-heated at 60° C. for 5 minutes, reaction 5 or 10 minutes at room temperature
  nucleic acid formed from primer by TdT after pre-heating of the nucleotide (thermal stability): addition of just one additional nucleotide

## Cc1cn([C@H]2C[C@H](O)[C@@H](COP(=O)(O)OP(=O)(O)OP(=O)(O)O)O2)c(=O)[nH]c1=O [unaltered dTTP, Deoxythymidine triphosphate, reference compound]
[3]
  number of nucleotides incorporated into the primer strand: ≤ 5
[2]
  nucleic acid formed from primer by TdT (extent of nucleotide addition): much longer nucleic acids
